Test results taken from patent publication US8623377B2, “Joint-homing peptides and uses thereof” (University of Maryland, Baltimore, priority 2011, dated 2014).

Key:
[1] = test system: human synovial tissue engrafted s.c.; conditions: human synovial tissue engrafted s.c. in SCID mice; cited from earlier work
ERK1/2 = assay: VEGF-induced signaling in HUVECs, Western blot p-ERK1/2; type: cell-based, human; conditions: peptide 10, 50, 100 μg/mL 1 h, then VEGF 10 ng/mL 20 min
Source text: (§1) FIG. 6A: HUVECs were stimulated with VEGF and treated with the indicated concentrations of peptides. Phosphorylated ERK1/2 and Akt, as well as total ERK1/2 and Akt, were detected by Western blot analysis. FIG. 6B: Thereafter, p-ERK1/2 and p-Akt were quantified by densitometry, normalized to total ERK1/2 (left) and Akt (right), respectively, and compared with cells in serum-free medium. The results of a representative experiment from a set of three independent experiments are shown. *P<0.05, compared with the positive control.
(§2) HUVECs were grown in F-12K medium in the presence of endothelial cell growth supplement (ECGS) (BD Biosciences) and 15% FBS. Confluent cells were starved in basal medium (without ECGS and FBS) for 6 h. Then the cells were pretreated for 1 h with different concentrations (10, 50, and 100 μg/mL) of a peptide (NQR, ADK, or RGD) in fresh basal medium, followed by treatment with VEGF (10 ng/mL) for another 20 min. The conditional medium was discarded, and the cells were lysed using a lysis buffer containing protease inhibitors and phosphatase inhibitors. The cell lysate was then centrifuged, and the resulting supernatant was used for analysis of signaling molecules using specific antibodies to human pERK1/2, ERK1/2, pAkt, Akt, and GAPDH (Cell Signaling Technology) by Western blot analysis. The intensity of the bands in the gel was quantified by densitometry. The levels of p-ERK1/2 and p-Akt were normalized to total ERK1/2 and Akt, respectively, and compared with cells in serum-free medium.

HUVECs = assay: Endothelial tube (tubule) formation on Matrigel with VEGF; type: cell-based, human; conditions: VEGF 10 ng/mL, peptide 0-100 μg/mL
Method: FIG. 4A: Draining lymph node leukocytes from arthritic rats were dye-tagged with PKH67 and injected i.v. into arthritic rats. One group of rats was left untreated, and the other groups were treated with ADK or NQR peptide. After 24 hours, the synovium-infiltrating cells (SICs) were harvested from the joints, subjected to cytospin, and analyzed by fluorescence microscopy (left). In parallel, another set of synovium-infiltrating cells were stained with PE-labeled anti-CD3 or anti-CD 11b/c+ antibody and analyzed by flow cytometry (right). FIG. 4B: HUVECs were cultured on Matrigel-coated wells for 24 hours in the presence of VEGF (10 ng/mL) and various concentrations (0-100 μg/mL) of NQR (left), ADK (center), and RGD (right) peptides. The branches of vessel-like tubes were counted. A reprensentative set of results is shown. *P<0.05, compared with the VEGF-alone control.
HUVECs (1×10^4) were cultured in 80 μL/well of growth factor-reduced Matrigel (BD Biosciences) in a 96-well plate in 100 μL/well of F-12K medium (with no supplements). These cells were then treated for 20 h with VEGF (R&D Systems) in the presence or absence of different concentrations of peptides (NQR, ADK, or RGD). Tubule formation was observed under a microscope, quantitated, and photographed.

[2] = test system: HUVECs attachment to vitronectin; assay: Attachment of HUVECs to vitronectin; type: cell-based, human; conditions: peptide 30-800 μg/mL, 1 h on vitronectin-coated wells
Method: HUVECs were first suspended in F-12K medium containing the indicated concentrations of NQR, AK or RGD peptide and then incubated for 1 h in microtiter wells coated with vitronectin. The number of cells that attached to vitronectin was quantified. The results of three independent experiments are shown. *P<0.05, compared with the baseline control.
The attachment of HUVECs to vitrnectin was quantified as described (37, 38). Microtiter wells were coated overnight at 4° C. with 2 μg/mL of vitronectin (BD Biosciences). These wells were then blocked for 1 h at 37° C. with 10 mg/mL of BSA (Sigma-Aldrich). In parallel, HUVECs (1.5×10^5 cells/mL) suspended in F-12K medium containing 10% FBS were incubated for 15 min at 37° C. with different concentrations (30-800 μg/mL) of NQR, ADK, or RGD peptide. Thereafter, this cell suspension 100 μL/well) was added to the vitronectin-coated wells, followed by incubation at 37° C. for 1 h. After washing, the number of attached cells was determined using crystal violet (Fisher Scientific).

Akt = assay: VEGF-induced signaling in HUVECs, Western blot p-Akt; type: cell-based, human; conditions: peptide 10, 50, 100 μg/mL 1 h, then VEGF 10 ng/mL 20 min
Source text: as §1, §2

[3] = test system: adjuvant arthritis in Lewis rats; assay: Antiarthritic activity in the adjuvant arthritis (AA) model, arthritic score; type: in vivo, Lewis rat
Method: FIG. 3A: Group of arthritic Lewis rats (n=4 per group) were injected with a peptide (AD, NQR, or RGD) or PBS i.v. on the days indicated by the arrows either at the onset or just after the onset of arthritis. The its were monitored regularly for the disease severity, presented as “arthritic score”. […] The sections were graded for histopathological features associated with arthritis. B, bone; C, cartilage, JS, joint space; SIC, synovium-infiltrating cells.
The synthetic peptide corresponding to the selected phage-encoded peptide was diluted in PBS and injected i.v. into Lewis rats beginning either at the onset or just after the onset of arthritis after Mtb injection. The peptide was injected to rats on alternate days at a dose of 1 or 2 mg/kg body weight. A total of three or four injections were given to each rat. Control animals received an equal volume of PBS. All rats were graded regularly for clinical signs of arthritis (36). The hind paws of these rats were harvested and processed for histopathological examination.
AA was induced in Lewis rats by immunizing them with 1 mg/rat of heat-killed M. tuberculosis H37Ra (Mtb; Difco) in 200 μL of mineral oil (Sigma-Aldrich) via s.c. injection at the base of the tail. Beginning on day 7 after immunization, the rats were observed regularly for signs of arthritis in the paws. The severity of arthritis was evaluated based on erythema and swelling as described previously. The highest score for each paw was 4, and the total maximum score for each rat was 16. The course of AA in the Lewis rat involved the following phases: incubation (days 0-8), onset (days 9-11), peak (days 15-18), and recovery (days 21-27).

αvβ3 = biological target: T1, αvβ3 (Oryctolagus cuniculus, UniProt A0A5F9CTL5+A0A5F9D0E2); conditions: intra-articular injection, rabbits with antigen-induced arthritis; cited from earlier work
T1 construct: host or cells: rabbit joints in vivo (intra-articular injection)
T1 sequence (A0A5F9D0E2 30-1047): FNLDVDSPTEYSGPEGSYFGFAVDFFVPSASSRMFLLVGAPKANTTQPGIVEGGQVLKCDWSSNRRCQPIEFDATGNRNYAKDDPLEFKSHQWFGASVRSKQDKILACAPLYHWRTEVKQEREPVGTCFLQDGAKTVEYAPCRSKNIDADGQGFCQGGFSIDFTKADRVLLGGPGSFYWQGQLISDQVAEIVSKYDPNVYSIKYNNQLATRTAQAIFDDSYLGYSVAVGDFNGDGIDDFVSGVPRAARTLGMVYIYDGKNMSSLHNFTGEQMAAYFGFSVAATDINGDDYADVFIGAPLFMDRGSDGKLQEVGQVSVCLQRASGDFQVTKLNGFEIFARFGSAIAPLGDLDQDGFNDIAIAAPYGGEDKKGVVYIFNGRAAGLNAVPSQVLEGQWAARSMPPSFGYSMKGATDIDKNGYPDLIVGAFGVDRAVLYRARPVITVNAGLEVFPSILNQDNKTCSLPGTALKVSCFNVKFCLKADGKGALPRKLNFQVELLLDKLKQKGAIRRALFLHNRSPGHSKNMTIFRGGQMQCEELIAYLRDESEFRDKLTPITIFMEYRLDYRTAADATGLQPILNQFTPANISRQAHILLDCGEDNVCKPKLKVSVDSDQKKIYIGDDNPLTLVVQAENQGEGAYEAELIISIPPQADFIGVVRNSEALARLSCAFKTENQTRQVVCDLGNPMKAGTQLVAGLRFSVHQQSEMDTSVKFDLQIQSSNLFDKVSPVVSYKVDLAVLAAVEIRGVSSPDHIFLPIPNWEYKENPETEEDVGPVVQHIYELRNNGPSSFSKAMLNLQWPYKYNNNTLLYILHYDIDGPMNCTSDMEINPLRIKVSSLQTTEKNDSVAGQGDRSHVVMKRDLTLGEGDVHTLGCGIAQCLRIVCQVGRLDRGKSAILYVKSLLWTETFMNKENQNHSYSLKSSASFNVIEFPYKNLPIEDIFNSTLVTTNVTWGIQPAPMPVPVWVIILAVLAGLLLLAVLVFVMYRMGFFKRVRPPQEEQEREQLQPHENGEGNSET
T1 sequence (A0A5F9CTL5 1-785): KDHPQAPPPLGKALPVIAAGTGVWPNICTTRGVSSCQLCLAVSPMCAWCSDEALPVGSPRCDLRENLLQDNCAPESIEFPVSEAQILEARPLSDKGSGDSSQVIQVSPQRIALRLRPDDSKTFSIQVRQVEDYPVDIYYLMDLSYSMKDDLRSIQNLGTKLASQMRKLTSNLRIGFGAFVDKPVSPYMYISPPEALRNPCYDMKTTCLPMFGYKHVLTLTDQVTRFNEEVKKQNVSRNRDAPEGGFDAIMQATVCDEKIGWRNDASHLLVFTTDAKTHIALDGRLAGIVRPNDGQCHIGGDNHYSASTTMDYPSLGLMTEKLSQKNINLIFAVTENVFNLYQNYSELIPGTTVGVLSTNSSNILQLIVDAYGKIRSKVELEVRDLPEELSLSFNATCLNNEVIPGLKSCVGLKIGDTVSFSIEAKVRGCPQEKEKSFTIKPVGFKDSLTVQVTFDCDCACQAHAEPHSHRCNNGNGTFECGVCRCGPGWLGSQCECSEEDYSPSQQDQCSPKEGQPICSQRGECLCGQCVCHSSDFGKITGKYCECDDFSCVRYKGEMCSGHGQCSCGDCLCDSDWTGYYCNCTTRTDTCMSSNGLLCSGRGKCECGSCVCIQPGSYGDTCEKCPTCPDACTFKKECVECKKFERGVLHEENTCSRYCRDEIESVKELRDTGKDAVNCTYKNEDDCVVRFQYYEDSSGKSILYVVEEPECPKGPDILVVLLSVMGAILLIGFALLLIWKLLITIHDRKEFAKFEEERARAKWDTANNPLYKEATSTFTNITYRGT

Substance | homing of peptide [1] | effect on VEGF-induced pERK (ERK1/2) | effect on endothelial cell tube formation (HUVECs) | effect on attachment of HUVECs to vitronectin [2] | effect on VEGF-induced pAkt (Akt) | difference in arthritic score versus PBS/ADK ([3]; from day 15 to day 27 (FIG. 3A center)) | suppression of the arthritic process ([3]; i.v. injection around the time of onset of arthritis, 1 or 2 mg/kg on alternate days) | down-modulation of arthritis ([3]; injected just after the onset of AA) | effect on arthritis (αvβ3)
CKSTHDRLC [literature peptide homing to human synovial tissue engrafted in SCID mice] | homing to the human synovial tissue |  |  |  |  |  |  |  | 
CRNADKFPC (Synthetic peptide homing to joint in an animal) [ADK peptide, joint-homing phage-derived synthetic peptide] |  | had no effect | had no effect | Neither peptide had any effect | had no effect |  |  |  | 
RGDfK [RGD peptide, reference compound] |  | the opposite was observed | inhibited tube formation | significantly inhibited cell attachment | the opposite was observed | significant | also suppressed arthritis | effective in down-modulating arthritis | 
RGDfV |  |  |  |  |  |  |  |  | reduce clinical arthritis, synovial angiogenesis, and joint damage
